{"source": "patent US20070078085A1", "about": "“Methods and compositions for the utilization and targeting of osteomimicry” (priority 2004, published 2007)", "key": {"[1]": {"tested_on": "CRE-nuclear protein (CREB) complexes", "assay": "Electrophoretic mobility shift assay (EMSA) with 32P-labeled CRE probe and nuclear extracts of treated cells", "type": "cell-based, human", "details": "nuclear extracts of C4-2B cells; H-89 10^−6 M", "description": "Electrophoretic Mobility Shift Assay (EMSA). A LNCaP-lineaged metastatic human prostate cancer cell line, C4-2B, and the human osteosarcoma cell line MG63 were plated in 15-cm diameter tissue culture dishes in T-medium (with 5% serum) until 80% confluence. Cells were then switched to 1-day complete serum-free condition and then treated with or without ARCaP CM (15 μg/ml) or FSK (10^−5 M) for an additional 16 h. Nuclear extracts were prepared from C4-2B and MG63 for EMSA as described by Ausubel et al (37). Briefly, cells were washed with cold PBS twice, harvested and homogenized in hypotonic buffer (10 mM HEPES, pH 7.9, 1.5 mM MgCl2, 10 mM KCl, 0.5 mM DTT and 0.2 mM PMSF). After centrifugation, the nuclear pellets were stirred and incubated for 30 min in high-salt buffer (20 mM HEPES, pH 7.9, 25% glycerol, 1.5 mM MgCl2, 1.2 M KCl, 0.2 mM EDTA, 0.5 mM DTT and 0.2 mM PMSF) on ice. The nuclear pellets were centrifuged, and the nuclear extract supernatants were dialyzed twice against dialysis buffer (20 mM HEPES, pH 7.9, 20% glycerol, 100 mM KCl, 0.2 mM EDTA, 0.5 mM DTT and 0.2 mM PMSF) overnight. The concentration of nuclear proteins was determined by the Bradford method using Coomassie plus protein reagent (Pierce). Synthetic oligonucleotides were purified by PAGE. Appropriate pairs were annealed by heating up to 95° C. for 10 min and naturally cooled down to room temperature. […]"}, "hOC promoter": {"tested_on": "hOC promoter", "assay": "hOC promoter-luciferase reporter activity in transfected cells", "type": "cell-based, human", "details": "C4-2B cells", "text": "Plasmid Construction. Genomic DNA was used in the PCR of the 0.8-kb hOC promoter inserting KpnI and XhoI sites, subsequently cloned into pGL3-Basic-luciferase reporter vector (Promega, Madison, Wis.) as described before (9). The deletion constructs, ΔA [374 bp upstream of AP1/VDRE (AV) element], ΔTst-1 (POU-factor Tst-1/Oct-6 binding site), ΔCRE (cAMP-responsive element) and ΔIRF-1 (interferon regulatory factor-i binding site) in hOC promoter/pGL3 were generated by recombinant PCR technique. The point mutation plasmids in CRE (from -643 to -636 in hOC promoter, 5′-[…]-3′) were constructed with a QuikChange Site-Directed Mutagenesis Kit (Stratagene). The mutation constructs (see below) are one-point substitution mutants, Mut1 (-642 G→T), Mut2 (-641 A→C), Mut3 (-640 C→A), Mut4 (-639 C→A) and Mut5 (-638 T→G), a two-point substitution mutant, Mut6 (-640 and -639 CC→AA), and a two-point deletion construct, Mut7 (-640 and -639 CC→XX). The 1.5-kb hBSP promoter construct prepared in the pGL3-luciferase reporter vector has been described previously (36). The single deletion constructs ΔCRE1 (-79 to -72) and ΔCRE2 (-674 to -667), and a double deletion construct ΔCRE2/CRE1 in the hBSP promoter/pGL3-luciferase plasmid were generated by recombinant PCR technique. All plasmid constructs were confirmed by DNA sequencing.\nTransfection and Luciferase Activity Assay. Cells were trypsinized and seeded at a density of 1.5×10^5 cells/well (LNCaP, C4-2B, DU145 and ARCaP) and 1.0×10^5 cells/well (PC3 and MG63) in 12-well plates 24 h before transfection. Plasmid DNAs were introduced into cells by complexing with a commercial reagent DOTAP (Roche Molecular Biochemicals) according to the manufacturer's protocol. Each transfection reaction contained 1.25 μg of tested DNA constructs and 0.25 μg of the transfection efficiency control CMV promoter-driven β-galactosidase plasmid DNA. After 6 h transfection, DNA-liposome mixtures were replaced by fresh T-medium or CM. Tansfected cells were harvested and lysed in 1× Reporter Lysis buffer (Promega) after 36 h additional incubation. Cell lysates were vortexed for 15 s and spun for 10 min. For luciferase activity assay, 20 μl of the lysate supernatant was mixed with 100 μl of the luciferase substrate (Promega) and detected by a luminometer (Monolight 3010, luminometer PharMingen, San Diego, Calif.). For β-galactosidase activity assay, 100 μl of the supernatant was mixed with 100 μl of 2×β-galactosidase substrate [200 mM sodium phosphate buffer, pH 7.3, 2 mM MgCl2, 100 mM β-mercaptoethanol and 1.33 mg/ml o-nitrophenyl-β-D-galactopyranoside (ONPG)], and incubated at 37° C. for 30 min. β-galactosidase activity was detected by Microplate spectrophotometer (Molecular Devices Corp., Sunnyvale, Calif.) at 405 nm wavelength. Data were presented as normalized luciferase activity (means±standard deviations), defined as luciferase activity normalized to internal control β-galactosidase activity for transfection efficiency. All studies were performed in three independent experiments with duplicate assays."}}}
{"compound": "O=S(=O)(NCCNCC=Cc1ccc(Br)cc1)c1cccc2cnccc12", "note": "[H-89, N-[2-(p-bromocinnamylamino)ethyl]-5-isoquinolinesulfonamide]", "values": [{"measurement": "ARCaP CM- and FSK-induced CRE binding to nuclear proteins", "setting": "[1]", "result": "abolish"}, {"measurement": "ARCaP CM-mediated activation of hOC promoter activity", "setting": "hOC promoter; H-89 10^−6 M 2 h, then ARCaP CM 15 μg/ml 16 h", "result": "inhibited"}, {"measurement": "PMA-induced hOC promoter activation", "setting": "hOC promoter; H-89 10^−6 M 2 h, then PMA 10^−6 M 16 h", "result": "not blocked"}, {"measurement": "db cAMP-mediated activation of hOC promoter activity", "setting": "hOC promoter; H-89 10^−6 M 2 h, then db cAMP 10^−3 M 16 h", "result": "inhibited"}, {"measurement": "CM-induced hOC promoter activity", "setting": "hOC promoter; H-89 10^−6 M, CM harvested from C4-2B, DU145, PC3 and MG63 cell lines", "result": "nearly abolished"}, {"measurement": "FSK-stimulated hOC promoter activity", "setting": "hOC promoter; H-89 10^−8 to 10^−6 M for 2 h, then FSK 10^−6 M 16 h, concentration-dependent", "result": "inhibited"}]}
